Experimental data: patent US6346529B1, “Antiviral therapy using thiazine dyes” (Oklahoma Medical Research Foundation, priority 1988, dated 2002)
pEC50, pIC50: −log10 of the molar value. Like-named read-outs stand apart in the source and are kept apart here.

Experiments:
Toxicity in Vero cells = format: cell-based; conditions: African green monkey
Protocol: The cells dislodged from the flask were generally in clumps and were dispersed by repeated forceful pipetting of the suspension against the surface of the flask. To 1 ml of the well-dispersed cell suspension, 0.2 ml of trypan blue solution was added, and the number of cells were counted using a hemacytomer. Each day for the next 3 days, two of the remaining flasks were harvested in the manner just described for determination of cell number. Only data on day three are presented. This method has previously been described by Schinazi, et al., “Effect of Combination of Acyclovir, and Vidarabine or its 5′-monophosphate on Herpes Simplex Viruses in Cell Culture and in Mice,” Antimicrob. Agents Chemother. 22, 499-507 (1982)). Median-Effect Method: EC50 and IC50 values were obtained by analysis of the data using the median-effect equation (Chou, T., et al., “Quantitative Analysis of Dose-Effect Relationships: The Combined Effects of Multiple Drugs or Enzyme Inhibitors,” Adv. Enz. Regul. 22, 27-55 (1984).

[1] = biological target: T1, calf thymus DNA polymerase alpha (CT α pol) (Bos taurus, UniProt A0AAA9TD94); assay: DNA polymerase alpha enzyme assay; format: biochemical
T1 construct: calf thymus DNA polymerase alpha (CT α pol); from tissue; host or cells: calf thymus
From the text: Enzyme Assays: The preparation of the enzyme and the assay conditions used, were recently described by Schinazi, et al., Antimicrob. Agents Chemother. 33, 115-117 (1989). HIV-1 RT and cellular DNA polymerase alpha were isolated from infected and uninfected PHA-stimulated human PBM cells according to traditional methods (Eriksson, B., et al., Antimicrob. Agents Chemother. 31, 600-604, (1987); Furman, et al., Proc. Natl. Acad. Sci. USA 83, 8333-8337, (1986); Abrell, et al., J. Virol. 12, 431-439, (1973).
Assays. Reaction mixtures (100 μl) contained:
The reactions were started by the addition of 10 μl of purified enzyme, incubated at 37° C. for the indicated periods of time and processed as described in Eriksson, et al., Antimicrob. Agents Chemother. 31, 600-604 (1987).
Median-Effect Method: EC50 and IC50 values were obtained by analysis of the data using the median-effect equation (Chou, T., et al., “Quantitative Analysis of Dose-Effect Relationships: The Combined Effects of Multiple Drugs or Enzyme Inhibitors,” Adv. Enz. Regul. 22, 27-55 (1984).
The effect of methylene blue on two DNA polymerizing enzymes, HIV reverse transcriptase (RT) and calf thymus DNA polymerase alpha (CT α pol), was also studied.

[2] = cited from earlier work
[3] = sheep, cited from earlier work
HIV (LAV-I) = assay: HIV in human PBMC, P24 levels by EIA; format: cell-based; conditions: for inhibition at 0.001 µM / inhibition at 0.01 µM / inhibition at 1 µM / inhibition at 10 µM / inhibition at 0.1 µM / pEC50: Human immunodeficiency virus 1, PBMC
Protocol: While the previous example measured RT activity, the present example utilizes a direct quantitation of a viral protein (P24) as an indicator of antiviral effectiveness.
Peripheral blood mononuclear (PBM) cells were infected with HIV and treated with methylene blue as described above. The EC50 levels were calculated from enzyme immuno-assay (EIA) measurements of viral coat protein P24. The P24-specific EIA kit was purchased from Abbott Labs.

[4] = tested on: nucleosides of adenine, cytosine, thymine, and guanine; assay: Methylene blue plus light treatment of nucleosides (HPLC); format: biochemical; conditions: methylene blue plus light 15 min
Protocol: The nucleosides of adenine, cytosine, thymine, and guanine (approximately 200 nmoles each) were also subjected to methylene blue (20 μl into 2.0 mls final total volume) plus light treatment (100 watt incandescent light 11 cm over solution for 15 min).

[5] = Ziv and Heavner 1984; cited from earlier work
RNA virus R17 [6] = assay: Inactivation of RNA virus R17, plaque titer on E. coli lawn; format: cell-based, R17 phage; conditions: for PFU: MB 0.05 uM
Protocol: Add 20 μl φ (R17 phage) stock to 2.0 ml dilution buffer and dispense 0.3 ml into each of tubes A-F. Next add methylene blue to give concentrations shown in Table 2 below. Pipet 270 μl of samples to be light treated into the #1 wells of a 96 well microtiter plate, corresponding to its letter label A-H. The samples in the microtiter plate were exposed to light through water (¼ cm) deep in a petri dish for 5 minutes. 270 μl of each sample not to be light treated was then added to wells in the plate.
R17 virus samples were also tested to determine the time of exposure of light required to inactivate the virus. […] The length of exposure was varied as follows:
Add 0.3 ml to well H2, treat with light 0-5 min. Add 0.3 ml to well G2, treat with light 5 min-7.5 min. Add 0.3 ml to well F2, treat with light 7.5 min-9.0 min. Add 0.3 ml to well E2, treat with light 9.0 min-9.5 min. Add 0.3 ml to well D2, treat with light 9.5 min-9.9 min. Add 0.3 ml to well C2, treat with light 9.9 min-10.0 min. Add 0.3 ml to well B, no light. Add 0.3 ml to well A, no light.

RNA virus R17 [7] = assay: as above; format: cell-based, R17 phage

T1 sequence (A0AAA9TD94 entry or part of it): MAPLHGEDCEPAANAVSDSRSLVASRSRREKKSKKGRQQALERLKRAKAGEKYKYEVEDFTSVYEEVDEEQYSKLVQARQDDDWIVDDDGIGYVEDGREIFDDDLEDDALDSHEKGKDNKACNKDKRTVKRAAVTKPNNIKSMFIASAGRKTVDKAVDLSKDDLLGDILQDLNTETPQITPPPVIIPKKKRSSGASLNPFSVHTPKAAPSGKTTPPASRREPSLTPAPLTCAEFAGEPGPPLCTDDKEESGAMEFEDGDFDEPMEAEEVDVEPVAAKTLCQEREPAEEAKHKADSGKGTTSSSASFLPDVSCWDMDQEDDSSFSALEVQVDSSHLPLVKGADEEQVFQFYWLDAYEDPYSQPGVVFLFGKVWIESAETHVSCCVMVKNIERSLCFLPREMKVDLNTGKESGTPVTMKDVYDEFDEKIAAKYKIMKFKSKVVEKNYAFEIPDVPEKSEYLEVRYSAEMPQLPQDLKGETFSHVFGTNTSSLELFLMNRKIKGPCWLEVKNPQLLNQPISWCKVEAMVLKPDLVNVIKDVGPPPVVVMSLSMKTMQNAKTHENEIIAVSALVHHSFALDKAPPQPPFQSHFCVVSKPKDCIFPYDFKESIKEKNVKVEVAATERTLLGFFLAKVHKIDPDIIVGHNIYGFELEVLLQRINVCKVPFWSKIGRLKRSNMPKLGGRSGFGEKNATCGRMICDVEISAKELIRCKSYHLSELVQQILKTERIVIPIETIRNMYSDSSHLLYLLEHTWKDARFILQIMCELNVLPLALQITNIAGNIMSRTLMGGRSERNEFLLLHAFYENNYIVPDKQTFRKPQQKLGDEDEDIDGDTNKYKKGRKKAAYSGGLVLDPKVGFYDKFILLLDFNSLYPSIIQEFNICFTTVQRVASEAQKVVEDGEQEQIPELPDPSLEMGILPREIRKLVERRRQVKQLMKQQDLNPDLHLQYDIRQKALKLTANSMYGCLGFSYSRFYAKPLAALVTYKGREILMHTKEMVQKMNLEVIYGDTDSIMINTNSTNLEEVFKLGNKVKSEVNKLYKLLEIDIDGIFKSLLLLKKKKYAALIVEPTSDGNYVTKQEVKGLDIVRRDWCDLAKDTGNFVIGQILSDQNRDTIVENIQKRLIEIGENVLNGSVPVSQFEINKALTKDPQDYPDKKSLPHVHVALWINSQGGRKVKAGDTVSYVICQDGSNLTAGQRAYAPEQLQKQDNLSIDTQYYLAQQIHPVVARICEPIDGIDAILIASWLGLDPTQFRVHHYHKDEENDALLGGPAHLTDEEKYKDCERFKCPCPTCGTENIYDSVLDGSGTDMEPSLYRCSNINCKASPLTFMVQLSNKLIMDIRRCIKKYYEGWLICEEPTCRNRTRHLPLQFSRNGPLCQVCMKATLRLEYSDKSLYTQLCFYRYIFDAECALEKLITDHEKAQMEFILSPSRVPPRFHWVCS

Nc1nc2c(ncn2COCCO)c(=O)[nH]1 [ACV, Acyclovir]
IC50 at 3 days (Toxicity in Vero cells): 1700 µM

CN(C)c1ccc2nc3ccc(N(C)C)cc3[s+]c2c1.[Cl-] [MB, 3,7-Bis(dimethylamino)phenothiazin-5-ium chloride]
pIC50 ([1]; Dark): 3.98 | pIC50 ([1]; Light): 3.90 | absorption from the GI tract ([2]; American Hospital Formulary Service): absorbed well from the GI tract | excreted in urine and via the bile ([2]; mostly as leukomethylene blue): about 75% | methemoglobin production ([3]; doses as high as 50 mg/kg): minimal methemoglobin production | hematologic changes ([3]; up to four weeks after a total dose of 30 mg/kg): no hematologic changes | overall elimination rate constant [3]: 0.0076 ± 0.016 min⁻¹ | ng P24/ml (HIV (LAV-I); Dark, 0.001 μM): 356.0 ng P24/ml | ng P24/ml (HIV (LAV-I); Dark, 0.01 μM): 270.2 ng P24/ml | ng P24/ml (HIV (LAV-I); Dark, 1 μM): 84.1 ng P24/ml | ng P24/ml (HIV (LAV-I); Dark, 10 μM): 5.4 ng P24/ml | ng P24/ml (HIV (LAV-I); Dark, .1 μM): 287.2 ng P24/ml | inhibition at 0.001 µM (HIV (LAV-I); read-out: % Inhibition (corrected), Dark, 0.001 μM): 0.8% | inhibition at 0.01 µM (HIV (LAV-I); read-out: % Inhibition (corrected), Dark, 0.01 μM): 24.7% | inhibition at 1 µM (HIV (LAV-I); read-out: % Inhibition (corrected), Dark, 1 μM): 76.6% | inhibition at 10 µM (HIV (LAV-I); read-out: % Inhibition (corrected), Dark, 10 μM): 98.5% | inhibition at 0.1 µM (HIV (LAV-I); read-out: % Inhibition (corrected), Dark, .1 μM): 20% | inhibition at 0.001 µM (HIV (LAV-I); read-out: % Inhibition (corrected), Light, 0.001 μM): -3.2% | inhibition at 0.01 µM (HIV (LAV-I); read-out: % Inhibition (corrected), Light, 0.01 μM): -3.2% | inhibition at 1 µM (HIV (LAV-I); read-out: % Inhibition (corrected), Light, 1 μM): 98.6% | inhibition at 10 µM (HIV (LAV-I); read-out: % Inhibition (corrected), Light, 10 μM): 99.4% | inhibition at 0.1 µM (HIV (LAV-I); read-out: % Inhibition (corrected), Light, .1 μM): 15.8% | pEC50 (HIV (LAV-I); read-out: EC50 (P24), Dark): 6.48 | pEC50 (HIV (LAV-I); read-out: EC50 (P24), Light): 7.62 | ng P24/ml (HIV (LAV-I); Light, 0.001 μM): 370.5 ng P24/ml | ng P24/ml (HIV (LAV-I); Light, 0.01 μM): 370.5 ng P24/ml | ng P24/ml (HIV (LAV-I); Light, 1 μM): 5.1 ng P24/ml | ng P24/ml (HIV (LAV-I); Light, 10 μM): 2.2 ng P24/ml | ng P24/ml (HIV (LAV-I); Light, .1 μM): 302.2 ng P24/ml | formation of hydroxylated derivative from nucleosides [4]: Only deoxyguanosine reacted to form the hydroxylated derivative | crossing of the blood-milk barrier [5]: crosses the blood-milk barrier easily | light exposure inactivating infectivity 50% (RNA virus R17 [6]; 0.05 μM methylene blue): 45 s | pfu/ml (RNA virus R17 [6]; MB 0.02 uM, light 5′ yes): 5.04 × 10^10 pfu/ml | pfu/ml (RNA virus R17 [6]; MB 0.04 uM, light 5′ yes): 1.11 × 10^10 pfu/ml | t½ of R17 inactivation (RNA virus R17 [6]; MB 0.05 uM and light): 48 to 60 s | PFU (RNA virus R17 [6]; light 0.1 min): 3.3 × 10^9/ml PFU/ml | PFU (RNA virus R17 [6]; light 0.5 min): 5.0 × 10^9/ml PFU/ml | PFU (RNA virus R17 [6]; light 2.5 min): 9.1 × 10^7/ml PFU/ml | PFU (RNA virus R17 [6]; light 5.0 min): 6.93 × 10^7/ml PFU/ml | PFU (RNA virus R17 [6]; light exposure none): 2.76 × 10^9/ml PFU/ml | pfu/ml (RNA virus R17 [6]; MB 0.2 uM, light 5′ yes): 3.25 × 10^5 pfu/ml | pfu/ml (RNA virus R17 [6]; MB 2.0 uM, light 5′ yes): 3.00 × 10^3 pfu/ml | pfu/ml (RNA virus R17 [6]; MB 2.0 uM, light no): 4.80 × 10^10 pfu/ml | pfu/ml (RNA virus R17 [6]; MB 20.0 uM, light 5′ yes): 4.20 × 10^4 pfu/ml | pfu/ml (RNA virus R17 [6]; MB 20.0 uM, light no): 3.00 × 10^9 pfu/ml | inactivation of R17 (ability to form plaques) (RNA virus R17 [7]; 0.02 μM methylene blue plus light for 15 min): causes inactivation of R17 | PFU (RNA virus R17 [7]; MB 0.05 uM, light 1.0 min): 1.0 × 10^9/ml PFU/ml
